“And” between values parts separate entries of the source, which are not always exact repeats. Equal values may be shown once. ± gives the expanded uncertainty stated by the source.
Experiment: xn = mol fraction of the nth substance listed
Settings: Gas, Buoyancy - hydrostatic balance with magnetic suspension - two sinkers

C [methane] + CCC
Settings	mass density
273.15 K, 931.05 kPa, x1 = 0.5069	13.4744 ± 0.017 kg/m3
273.15 K, 971.34 kPa, x1 = 0.5069	14.1245 ± 0.014 kg/m3
273.15 K, 971.91 kPa, x1 = 0.5069	14.1339 ± 0.014 kg/m3
273.15 K, 972.48 kPa, x1 = 0.5069	14.1428 ± 0.014 kg/m3
273.15 K, 980.94 kPa, x1 = 0.5069	14.2794 ± 0.092 kg/m3
273.15 K, 986.21 kPa, x1 = 0.5069	14.3656 ± 0.091 kg/m3
273.15 K, 991.45 kPa, x1 = 0.5069	14.4504 ± 0.091 kg/m3
273.15 K, 1009.5 kPa, x1 = 0.5069	14.7466 ± 0.0089 kg/m3 and 14.7469 ± 0.009 kg/m3
273.15 K, 1009.6 kPa, x1 = 0.5069	14.7472 ± 0.0089 kg/m3
273.15 K, 1015.4 kPa, x1 = 0.5069	14.8425 ± 0.0089 kg/m3
273.15 K, 1015.5 kPa, x1 = 0.5069	14.8423 ± 0.009 kg/m3
273.15 K, 1299.2 kPa, x1 = 0.7498	14.1894 ± 0.011 kg/m3
273.15 K, 1700.4 kPa, x1 = 0.7498	19.0431 ± 0.013 kg/m3 and 19.0434 ± 0.013 kg/m3
273.15 K, 1999 kPa, x1 = 0.7498	22.8336 ± 0.018 kg/m3
273.15 K, 1999.7 kPa, x1 = 0.7498	22.843 ± 0.017 kg/m3
273.15 K, 2000.5 kPa, x1 = 0.7498	22.8522 ± 0.017 kg/m3
273.15 K, 2295.4 kPa, x1 = 0.7498	26.7552 ± 0.02 kg/m3
273.15 K, 2297.1 kPa, x1 = 0.7498	26.7787 ± 0.02 kg/m3
273.15 K, 2297.8 kPa, x1 = 0.7498	26.7892 ± 0.02 kg/m3
273.15 K, 2309.7 kPa, x1 = 0.7498	26.9494 ± 0.02 kg/m3
273.15 K, 2310.5 kPa, x1 = 0.7498	26.9603 ± 0.02 kg/m3
273.15 K, 2311.3 kPa, x1 = 0.7498	26.971 ± 0.019 kg/m3
273.16 K, 500.9 kPa, x1 = 0.7498	5.2231 ± 0.0063 kg/m3
273.16 K, 1299.2 kPa, x1 = 0.7498	14.1894 ± 0.011 kg/m3
274.02 K, 674.01 kPa, x1 = 0.2658	12.0842 ± 0.01 kg/m3
274.13 K, 674.35 kPa, x1 = 0.2658	12.084 ± 0.01 kg/m3
274.25 K, 674.71 kPa, x1 = 0.2658	12.0838 ± 0.01 kg/m3
274.37 K, 675.08 kPa, x1 = 0.2658	12.0836 ± 0.01 kg/m3
274.5 K, 675.47 kPa, x1 = 0.2658	12.0837 ± 0.01 kg/m3
274.64 K, 675.87 kPa, x1 = 0.2658	12.0831 ± 0.01 kg/m3
274.78 K, 676.29 kPa, x1 = 0.2658	12.0823 ± 0.01 kg/m3
274.93 K, 676.74 kPa, x1 = 0.2658	12.0821 ± 0.01 kg/m3
275.09 K, 677.21 kPa, x1 = 0.2658	12.0819 ± 0.01 kg/m3
275.26 K, 677.71 kPa, x1 = 0.2658	12.0812 ± 0.01 kg/m3
275.43 K, 678.23 kPa, x1 = 0.2658	12.0807 ± 0.01 kg/m3
275.61 K, 678.78 kPa, x1 = 0.2658	12.0804 ± 0.01 kg/m3
275.81 K, 679.35 kPa, x1 = 0.2658	12.0795 ± 0.01 kg/m3
276.01 K, 679.96 kPa, x1 = 0.2658	12.0795 ± 0.011 kg/m3
276.22 K, 680.58 kPa, x1 = 0.2658	12.0783 ± 0.011 kg/m3
276.44 K, 681.24 kPa, x1 = 0.2658	12.0781 ± 0.011 kg/m3
276.67 K, 681.92 kPa, x1 = 0.2658	12.0776 ± 0.011 kg/m3
276.89 K, 682.58 kPa, x1 = 0.2658	12.0781 ± 0.01 kg/m3
277.08 K, 683.2 kPa, x1 = 0.2658	12.0796 ± 0.0096 kg/m3
277.2 K, 683.7 kPa, x1 = 0.2658	12.0865 ± 0.0089 kg/m3
293.14 K, 149.9 kPa, x1 = 0.2658	2.2917 ± 0.0041 kg/m3 and 2.2913 ± 0.0039 kg/m3 and 2.2914 ± 0.0039 kg/m3
293.14 K, 205.57 kPa, x1 = 0.5069	2.5567 ± 0.0041 kg/m3 and 2.5566 ± 0.0042 kg/m3
293.14 K, 258.04 kPa, x1 = 0.2658	3.9962 ± 0.0042 kg/m3
293.14 K, 355.08 kPa, x1 = 0.2658	5.5657 ± 0.0049 kg/m3
293.14 K, 393.87 kPa, x1 = 0.5069	4.9714 ± 0.0046 kg/m3
293.14 K, 469.3 kPa, x1 = 0.2658	7.4654 ± 0.0051 kg/m3 and 7.465 ± 0.0052 kg/m3
293.14 K, 568.75 kPa, x1 = 0.2658	9.168 ± 0.0062 kg/m3 and 9.1681 ± 0.0063 kg/m3
293.14 K, 613.82 kPa, x1 = 0.5069	7.8848 ± 0.0061 kg/m3
293.14 K, 655.64 kPa, x1 = 0.2658	10.6962 ± 0.0066 kg/m3
293.14 K, 955.23 kPa, x1 = 0.2658	16.2976 ± 0.0097 kg/m3
293.14 K, 1006.2 kPa, x1 = 0.5069	13.3635 ± 0.0095 kg/m3 and 13.3634 ± 0.0094 kg/m3
293.14 K, 1056.3 kPa, x1 = 0.2658	18.3228 ± 0.01 kg/m3 and 18.3227 ± 0.01 kg/m3 and 18.3219 ± 0.011 kg/m3
293.14 K, 1105.6 kPa, x1 = 0.2658	19.3403 ± 0.01 kg/m3
293.14 K, 1105.7 kPa, x1 = 0.2658	19.3405 ± 0.01 kg/m3
293.14 K, 1209.2 kPa, x1 = 0.5069	16.3578 ± 0.012 kg/m3
293.14 K, 1399.6 kPa, x1 = 0.5069	19.2779 ± 0.012 kg/m3
293.14 K, 1807.2 kPa, x1 = 0.5069	25.9505 ± 0.014 kg/m3 and 25.9502 ± 0.014 kg/m3
293.15 K, 205.57 kPa, x1 = 0.5069	2.5568 ± 0.004 kg/m3
293.15 K, 258.04 kPa, x1 = 0.2658	3.9961 ± 0.0045 kg/m3 and 3.9961 ± 0.0042 kg/m3
